Molecules are shown by their SMILES. ≈ marks a conversion by molar mass, not a printed value. Like-named read-outs stand apart in the source and are kept apart here.

Assay [1] relates to P. aeruginosa strain PA14. Description: microbe, parasite or virus in culture. The note with it: Pseudomonas aeruginosa.
In assay [2] the test system is Escherichia coli DH5a. Description: microbe, parasite or virus in culture. The note with it: 16 h.
Assay [3] deals with P. aeruginosa strain PA14. The note with it: Table S5.
The test system of assay [4] is Enterococcus faecalis ATCC29212. As to the kind of experiment: microbe, parasite or virus in culture. The settings on record: ATCC29212, 16 h.
In assay [5] the test system is Serratia marcescens ATCC39006. As to the kind of experiment: microbe, parasite or virus in culture. The note with it: ATCC39006, 16 h.
For assay [6], the system named is P. aeruginosa strain PAO1.
Assay [7] concerns P. aeruginosa strain PAO1. As to the kind of experiment: microbe, parasite or virus in culture. The note with it: Pseudomonas aeruginosa, PAO1, 16 h, read-out: MIC for PAO1.

For the compound `O=C(O)c1cn(C2CC2)c2cc(N3CCNCC3)c(F)cc2c1=O` [Ciprofloxacin, ciprofloxacin], the MIC in assay [1] (PA14, 16 h, read-out: MIC for PA14) turned out to be 0.0625 µg/mL; in assay [1] (PA14, read-out: MIC for PA14), 0.19 µM; in assay [2] it was 0.0078 µg/mL (≈ 0.0235 µM); in assay [4], 0.5 µg/mL (≈ 1.51 µM); in assay [5], 0.0625 µg/mL (≈ 0.189 µM); in assay [7] it was 0.125 µg/mL (≈ 0.377 µM). The “PA14 MIC” value in assay [3] turned out to be 0.0625 µg/mL. In addition, the “MIC for PAO1” value in assay [6] (Table 3, data combined from multiple experiments, standard medium) worked out at 0.38 µM. Further, in assay [6] (Table S5, altered linking region between peptide and cephalosporin), the “PAO1 MIC” value was found to be 0.125 µg/mL.

(Values after paper PMC12447755, “β-Lactamase cleavable antimicrobial peptide–drug conjugates” (Chemical Science, 2025).)
